These results are taken from patent US20110039762A1, “TARGETED ANTIMICROBIAL MOIETIES” (C3 JIAN, INC., priority 2009, published 2011).

“Also recorded” adds a separate entry of the source.

The test system of one assay is microorganisms (e.g., bacteria, yeasts, fungi). Nature of the assay: Targeting peptide binding to target microorganisms (Table 3). As to conditions: microorganism the targeting peptide binds; binding in aqueous buffers varied by peptide solubility, preferably 1x PBS.
“1T-107 (SPVPRFTAVGGVSRGSP; Peptide with targeting and/or antimicrobial activity) [Peptide 1T-107]”: the “Target(s)” value is recorded as “A. naeslundii; also recorded: S. epidermidis; also recorded: S. gordonii; also recorded: S. mitis; also recorded: S. mutans; also recorded: S. oralis; also recorded: S. salivarious; also recorded: S. sanguinis”.
The same measure, in the same setting: for “1T-79 (FGTPWSITNFWKKNFNDRPDFDSDRRRY; Peptide with targeting and/or antimicrobial activity) [Peptide 1T-79]” the value was “S. pneumoniae”.
With “1T-32 (VSFLAGWLCLGLAAWRLGNA; Peptide with targeting and/or antimicrobial activity) [Peptide 1T-32]”, the “Target(s)” value is listed as “S. mutans”.
On the same count and under the same terms, for “1T-193 (LMIFDKHANLKYKYGNRSFGVEAIM; Peptide with targeting and/or antimicrobial activity) [Peptide 1T-193]” the value was “S. sanguinis”; for “1T-70 (NRQAQGERAHGEQQG; Peptide with targeting and/or antimicrobial activity) [Peptide 1T-70]”, “S. aureus; also recorded: C. jeikeium; also recorded: P. aeruginosa”; for “PF-044 (KLKKYIHKPD; Peptide with targeting and/or antimicrobial activity)”, “S. epidermidis and M. luteus and MRSA and C. jeikeium”.
For the substance “1T-76 (EMRLSKFFRDFILWRKK; Peptide with targeting and/or antimicrobial activity) [Peptide 1T-76]”, the “Target(s)” value is on record as “S. pneumoniae”.
On the same count and under the same terms, the result for “1T-196 (KPEKEKLDTNTLMKVVNKALSLFDRLLIKFGA; Peptide with targeting and/or antimicrobial activity) [Peptide 1T-196]” reads “F. nucleatum; also recorded: S. sanguinis”; that for “PF-016 (RKQYDDLSFNFLY; Peptide with targeting and/or antimicrobial activity)”, “S. epidermidis; also recorded: E. faecalis; also recorded: C. jeikeium”; that for “TT-305 (ARNALNMRDVPVDAAIIGIIDGMDEE; Peptide with targeting and/or antimicrobial activity)”, “F. nucleatum”.
Still for that read-out and setting: the result for “PF-039 (MLEEKNKSL; Peptide with targeting and/or antimicrobial activity)” reads “P. mirabilis; also recorded: C. jeikeium”; that for “1T-259 (EKLKKILLKLAVCGKAWYTL; Peptide with targeting and/or antimicrobial activity) [Peptide 1T-259]”, “F. nucleatum; also recorded: P. gingivalis; also recorded: T. denticola; also recorded: S. mitis; also recorded: S. mutans; also recorded: S. oralis; also recorded: S. sanguinis”.
Still for that read-out and setting: the result for “TT-306 (KILNEAEGKLLKVIEKNGEIDIEEI; Peptide with targeting and/or antimicrobial activity)” reads “F. nucleatum”; that for “1T-114 (RQAPGPGLVTITAACSAPGSRSR; Peptide with targeting and/or antimicrobial activity) [Peptide 1T-114]”, “A. naeslundii; also recorded: P. gingivalis; also recorded: S. epidermidis; also recorded: S. gordonii; also recorded: S. mitis; also recorded: S. mutans; also recorded: S. oralis; also recorded: S. sanguinis”; that for “1T-83 (QKPRKNETFIGYIQRYDIDGNGYQSLPCPQN; Peptide with targeting and/or antimicrobial activity) [Peptide 1T-83]”, “S. pneumoniae”.
As for “1T-8 (FSVAACGEQRAVTFVLLIEDLI; Peptide with targeting and/or antimicrobial activity) [Peptide 1T-8]”, the “Target(s)” value is recorded as “M. xanthus”.
Still for that read-out and setting: for “1T-297 (RSLRLNNALTKLPKLWYNRIKEAFYAYNDYDK; Peptide with targeting and/or antimicrobial activity) [Peptide 1T-297]” the value was “A. naeslundii; also recorded: F. nucleatum; also recorded: T. denticola; also recorded: S. mitis; also recorded: S. mutans; also recorded: S. oralis”.

Staying with this assay, now noted: microorganism(s) the targeting peptide binds; binding in aqueous buffers depending on peptide solubility, preferably 1x PBS.
Regarding “PF-162 (GIRRLHSVENLNREISHRMAGLR; Peptide with targeting and/or antimicrobial activity)”, the “Target(s)” value was “S. epidermidis and MRSA”.
For “PF-299 (LATKLKYEKEHKKM; Peptide with targeting and/or antimicrobial activity)”, the “Target(s)” value is given as “B. subtilis”.
In the case of “PF-217 (DWEFTHKTIPQKK; Peptide with targeting and/or antimicrobial activity)”, the “Target(s)” value is on record as “S. mutans”.
Consider “PF-266 (DQEKKNKTEESTEQ; Peptide with targeting and/or antimicrobial activity)”, for which the “Target(s)” value is given as “S. mutans”.
The same measure, in the same setting: for “PF-174 (RGGDSPARRRPGLAGPGGPG; Peptide with targeting and/or antimicrobial activity)” the value was “S. epidermidis; also recorded: P. aeruginosa; also recorded: C. jeikeium”.
The same measure, in the same setting: for “PF-295 (NIQVYESECGNYIFKKSDESFLIDIFDKNGTH; Peptide with targeting and/or antimicrobial activity)” the value was “C. difficile”; for “PF-225 (MNCASPEFKKLMELYK; Peptide with targeting and/or antimicrobial activity)”, “S. epidermidis”; for “PF-232 (FDQLYALEREGKLDELLA; Peptide with targeting and/or antimicrobial activity)”, “S. epidermidis; also recorded: M. luteus”.
Same read-out and setting: for “PF-253 (VRDDDS; Peptide with targeting and/or antimicrobial activity)” the value was “S. epidermidis; also recorded: M. luteus”; for “PF-131 (RRAAARTKGNRR; Peptide with targeting and/or antimicrobial activity)”, “S. epidermidis and E. coli and MRSA and C. jeikeium”.
For “PF-333 (YMTKKLVEMAEQQMAGKSNR; Peptide with targeting and/or antimicrobial activity)”, the “Target(s)” value is listed as “S. mutans”.
As to “PF-200 (GIELKSLIMAQIERWRQA; Peptide with targeting and/or antimicrobial activity)”, the “Target(s)” value was “S. epidermidis and M. luteus and MRSA and E. faecalis and C. jeikeium”.
“PF-141 (VVRRFQGM; Peptide with targeting and/or antimicrobial activity)”: the “Target(s)” value was “S. epidermidis and M. luteus and C. albicans and MRSA and C. jeikeium”.
Same read-out and setting: for “PF-359 (MTVMEDPGSEQRNKIQSPMKGEDFSALFGR; Peptide with targeting and/or antimicrobial activity)” the value was “S. epidermidis and B. fragilis and P. aeruginosa and C. albicans and MRSA and E. faecalis and C. jeikeium”.
As for “PF-160 (SFHASLTKNEKPIKSTG; Peptide with targeting and/or antimicrobial activity)”, the “Target(s)” value was “S. epidermidis”.

Still in this assay, the particulars now being: microorganism(s) the targeting peptide binds; peptide binding conducted in aqueous buffers varied by peptide solubility, preferably 1x PBS.
With “PF-494 (FTEPLRPLQAKGQIISIKPSTSSS; Peptide with targeting and/or antimicrobial activity)”, the “Target(s)” value is “S. mutans”.
On to “PF-510 (WYLYKKQSNQNDRGIPK; Peptide with targeting and/or antimicrobial activity)”, for which the “Target(s)” value is “S. mutans; also recorded: E. coli”.
As to “PF-503 (VVTLKDIVAVIEDQGYDVQ; Peptide with targeting and/or antimicrobial activity)”, the “Target(s)” value was “S. mutans”.
In the case of “PF-463 (MVILVFSLIFIFTDNYLVYQSKSIKEDVMI; Peptide with targeting and/or antimicrobial activity)”, the “Target(s)” value is given as “S. epidermidis; also recorded: E. coli; also recorded: P. aeruginosa; also recorded: C. albicans; also recorded: S. pneumoniae; also recorded: E. faecalis; also recorded: M. smegmatis”.
As for “PF-441 (TQVHKMARGIDPGPANGIYR; Peptide with targeting and/or antimicrobial activity)”, the “Target(s)” value is reported as “C. jeikeium”.
The same measure, in the same setting: the result for “PF-388 (ITPLLDEIGKVCIDKISK; Peptide with targeting and/or antimicrobial activity)” reads “E. faecalis; also recorded: C. jeikeium; also recorded: C. jejuni”.

Staying with this assay, now noted: peptide binding in aqueous buffers varied by peptide solubility; preferably 1x PBS.
As for “PF-772 (TKESSS; Peptide with targeting and/or antimicrobial activity)”, the “Target(s) (microorganisms bound by the targeting peptide)” value is “S. epidermidis and C. albicans and MRSA and S. pneumoniae and C. jeikeium”.
As for “PF-750 (AESSPAKTTA; Peptide with targeting and/or antimicrobial activity)”, the “Target(s) (microorganisms bound by the targeting peptide)” value is reported as “M. luteus; also recorded: C. jeikeium”.
For the substance “PF-727 (AYARCRHDYPFTLGQMQTH; Peptide with targeting and/or antimicrobial activity)”, the “Target(s) (microorganisms bound by the targeting peptide)” value was “S. mutans; also recorded: E. coli”.
Same read-out and setting: the result for “PF-C034 (HPMPITVRSRKPGPLTAPSEH; Peptide with targeting and/or antimicrobial activity)” reads “S. mutans; also recorded: E. coli”; that for “PF-650 (IRSDQPGRQSRSSPRWPTGAGRHR; Peptide with targeting and/or antimicrobial activity)”, “Mycobacteria spp”; that for “PF-735 (YDPLFPNDKN; Peptide with targeting and/or antimicrobial activity)”, “S. mutans; also recorded: E. coli”.
Consider “PF-S004 (VLLNIFRTLLEFFSPSNAPGAEDVPLPDTQA; Peptide with targeting and/or antimicrobial activity)”, for which the “Target(s) (microorganisms bound by the targeting peptide)” value is “S. epidermidis and MRSA and C. jeikeium”.
Same read-out and setting: for “PF-S026 (TELKYNGEEYLLLTQRDILAVIEK; Peptide with targeting and/or antimicrobial activity)” the value was “S. epidermidis and MRSA and C. jeikeium”; for “PF-720 (SLDMGK; Peptide with targeting and/or antimicrobial activity)”, “S. mutans”.
